Results reported in patent publication US20040052837A1, “Lipid conjugated anti-cancer drugs and methods of use thereof” (priority 2002, published 2004).

System: phospholipase A2
Details: SUVs with 18:0,18:2-PC 80/20 mol %, Tris pH 8.8, 20 min

Q: Which “hydrolysis by phospholipase A2” value does the source give for `CCCCCCCCCCCCCCCCCC(=O)OCC(COP(=O)([O-])OCC[N+](C)(C)C)OC(=O)CCCc1ccc(N(CCCl)CCCl)cc1` (stereo not shown) [18:0, Chlorambucil-PC] here?
A: total
